The values below come from patent publication US12649733B2, “3,6-diamino-pyridazin-3-yl derivatives, pharmaceutical compositions containing them and their uses as pro-apoptotic agents” (LES LABORATOIRES SERVIER, priority 2019, dated 2026).

In test [1] the test system is H146 cells. Description: H146 cell viability, MTT assay. Format: cell-based. The settings on record: Homo sapiens, NCI-H146, 48 h, 48 h exposure. On the procedure:
(§1) MTT colorimetric assay is based on the mitochondrial reduction of tetrazolium salt by living cells. The viable cell number is proportional to the production of formazan salts, which can be read spectrophotometrically at 540 nm.
(§2) MOLT-4 and H146 cells were purchased from ATCC and cultivated in RPMI 1640 supplemented with 10% heat inactivated fetal bovine serum, penicillin (100 IU/ml), streptomycin (100 μg/ml) and L-glutamine (2 mM). Cells were cultured at 37° C. in a humidified atmosphere containing 5% CO2. Cells were seeded in 96 microwell plates (150 μL per well) and exposed to the compounds for 48 h (3.16 fold serially diluted; 9 concentrations each, triplicates). At the end of incubation time, 15 μL of MTT solution (5 mg/ml) were added per well and the cells were incubated for another 4 h. Then, 100 μL of 10% Sodium Dodecyl Sulfate (SDS)/HCl 10 mM were added per well and the plate was incubated overnight, before measurement of optical density at 540 nm. IC50s were calculated using standard four-parametric curve fitting.
For orientation: Tetrazolium assays rely on reduction of a dye to a coloured formazan, in cell work by metabolically active cells.

Test [2] deals with BCLXL (Homo sapiens, UniProt Q07817, V10N/V9A). Nature of the test: Fluorescence polarisation assay (PUMA-based probe displacement). Further: 20 nM protein, 10 nM fluorescent probe. Format: binding. On the procedure:
Fluorescence polarization measures the rotation of a fluorescing species in solution, the larger the molecule the more polarized the fluorescence emission.
[[…]] (GST UniProtKB® primary accession number P08515 and BCLXL UniProtKB® primary accession number Q07817-1),
resulting in an increase in anisotropy. If a compound is added which competitively binds to the same site as the probe, thereby releasing it, anisotropy decreases due to the increased amount of free probe.
An 11-point serial dilution of each compound was prepared in DMSO, the final buffer conditions were 10 mM 4-(2-hydroxyethyl)-1-piperazineethanesulfonic acid [HEPES], 150 mM NaCl, 0.05% Tween 20, pH 7.4 and 5% DMSO. The final protein concentration in the assay was 20 nM with the fluorescent probe present at 10 nM. The experiments were incubated for 2 hours at 23° C. before fluorescence polarization was measured on a Biotek SynergyNeo plate reader (Excitation 485 nm, emission 525 nm, parallel and perpendicular reads). […] The KI values were determined from the IC50 values according to Cer et al, Nucleic Acids Res, 2009, Jul. 1: 37(WebServer issue): W441-W445.
On the technique in general: In fluorescence polarisation assays a small probe gives low polarisation when free and higher when bound to something large.

The test system of test [3] is MOLT-4 cells. Description: MOLT-4 cell viability, MTT assay. The conditions noted are these: Homo sapiens, MOLT-4, 48 h, 48 h exposure. Format: cell-based. As to the method: as §1, §2

The IC50 is the midpoint of a concentration-inhibition curve. Read a high IC50 as weaker potency. Broadly, the Ki is a dissociation constant, usually derived from enzyme kinetics or from competition with a known ligand.

Sequence of BCLXL (Q07817 with tags, fused parts or gaps V9A/V10N): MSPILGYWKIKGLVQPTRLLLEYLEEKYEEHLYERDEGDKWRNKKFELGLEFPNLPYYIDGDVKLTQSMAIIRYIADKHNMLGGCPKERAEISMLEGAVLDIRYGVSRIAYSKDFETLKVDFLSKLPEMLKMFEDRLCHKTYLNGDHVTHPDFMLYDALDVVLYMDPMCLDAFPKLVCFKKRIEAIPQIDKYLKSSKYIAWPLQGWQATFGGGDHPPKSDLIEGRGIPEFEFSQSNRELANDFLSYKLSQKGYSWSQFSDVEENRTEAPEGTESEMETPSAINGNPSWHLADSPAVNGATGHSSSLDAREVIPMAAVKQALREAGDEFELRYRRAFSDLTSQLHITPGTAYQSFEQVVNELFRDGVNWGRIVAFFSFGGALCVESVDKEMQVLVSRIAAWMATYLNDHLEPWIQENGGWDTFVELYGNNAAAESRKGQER

The compound `Cc1c(Nc2nc(C(=O)O)cs2)nnc(Nc2nc3ccccc3s2)c1C` [Example 1] came in with an IC50 in test [1] of 15000 nM. This lies in the double-digit micromolar range. As for `O=C(O)c1csc(Nc2ccc(Nc3nc4ccccc4s3)nn2)n1` [Example 4, 2-({6-[(1,3-Benzothiazol-2-yl)amino]pyridazin-3-yl}amino)-1,3-thiazole-4-carboxylic acid], in test [2], the Ki was 910 nM.

With `Cc1cc(Nc2nc(C(=O)O)cs2)nnc1Nc1nc2ccccc2s1` [Example 7, 2-({6-[(1,3-Benzothiazol-2-yl)amino]-5-methylpyridazin-3-yl}amino)-1,3-thiazole-4-carboxylic acid], the IC50 in test [1] is > 15000 nM.

In the case of `Cc1cc(Nc2nc3ccccc3s2)nnc1Nc1nc(C(=O)O)cs1` [Example 11, 2-({6-[(1,3-Benzothiazol-2-yl)amino]-4-methylpyridazin-3-yl}amino)-1,3-thiazole-4-carboxylic acid], the Ki in test [2] was 600 nM.

As for `O=C(O)c1csc(Nc2nnc(Nc3nc4ccccc4s3)c3c2CCCC3)n1` [Example 17, 2-[[4-(1,3-Benzothiazol-2-ylamino)-5,6,7,8-tetrahydrophthalazin-1-yl]amino]thiazole-4-carboxylic acid], the IC50 in test [1] was 13400 nM; in test [3], 7880 nM. Taken in the same sequence, the figures for `Cc1c(Nc2nc(C(=O)O)cs2)nnc(Nc2nc3ccccc3s2)c1C1CC1` [Example 20, 2-({6-[(1,3-Benzothiazol-2-yl)amino]-5-cyclopropyl-4-methylpyridazin-3-yl}amino)-1,3-thiazole-4-carboxylic acid] were 3350 nM and 7210 nM. In turn, `Cc1cc(N(C)c2nc(C(=O)O)cs2)nnc1Nc1nc2ccccc2s1` [Example 21, 2-({6-[(1,3-Benzothiazol-2-yl)amino]-5-methylpyridazin-3-yl}(methyl)amino)-1,3-thiazole-4-carboxylic acid] showed an IC50 in test [1] of 9580 nM. This lies in the single-digit micromolar range. With `Cc1c(Nc2nc3ccccc3s2)nnc(N(C)c2nc(C(=O)O)cs2)c1C` [Example 26, 2-({6-[(1,3-Benzothiazol-2-yl)amino]-4,5-dimethylpyridazin-3-yl}(methyl)amino)-1,3-thiazole-4-carboxylic acid], the IC50 in test [1] and in test [3] was > 15000 nM each time. With `COCc1c(Nc2nc(C(=O)O)cs2)nnc(Nc2nc3ccccc3s2)c1C` [Example 29, 2-({6-[(1,3-Benzothiazol-2-yl)amino]-4-(methoxymethyl)-5-methylpyridazin-3-yl}amino)-1,3-thiazole-4-carboxylic acid], the IC50 in test [1] and in test [3] was > 15000 nM each time. As to `COCCCC1(Cn2ncc(-c3sc(N(C)c4cc(C)c(Nc5nc6ccccc6s5)nn4)nc3C(=O)O)c2C)CCCCCCC1` [Example 43, 2-({6-[(1,3-Benzothiazol-2-yl)amino]-5-methylpyridazin-3-yl}(methyl)amino)-5-(1-{[1-(3-methoxypropyl)cyclooctyl]methyl}-5-methyl-1H-pyrazol-4-yl)-1,3-thiazole-4-carboxylic acid], the Ki in test [2] is 19 nM.

For the compound `Cc1c(Nc2nc(C(=O)O)cs2)nnc(Nc2nc3c(C)cccc3s2)c1C` [Example 48, 2-[[4,5-dimethyl-6-[(4-methyl-1,3-benzothiazol-2-yl)amino]pyridazin-3-yl]amino]thiazole-4-carboxylic acid], the Ki in test [2] amounted to 1900 nM. As to `Cc1c(Nc2nc3ccccc3s2)nnc(Nc2nc(C(=O)O)cs2)c1CCCN1CCN(C)CC1` [Example 51, 2-({6-[(1,3-Benzothiazol-2-yl)amino]-5-methyl-4-[3-(4-methylpiperazin-1-yl)propyl]pyridazin-3-yl}amino)-1,3-thiazole-4-carboxylic acid], the IC50 in test [1] and in test [3] was > 15000 nM throughout.

As for `Cc1c(Nc2nc(C(=O)O)cs2)nnc(Nc2nc3c(F)cccc3s2)c1C` [Example 55, 2-[[6-[(4-Fluoro-1,3-benzothiazol-2-yl)amino]-4,5-dimethyl-pyridazin-3-yl]amino]thiazole-4-carboxylic acid], the Ki in test [2] came to 82 nM. For `Cc1cc(N(C)c2nc(C(=O)O)c(N3CC(O)C3)s2)nnc1Nc1nc2ccccc2s1` [Example 72, 2-({6-[(1,3-Benzothiazol-2-yl)amino]-5-methylpyridazin-3-yl}(methyl)amino)-5-(3-hydroxyazetidin-1-yl)-1,3-thiazole-4-carboxylic acid], the Ki in test [2] was found to be 160 nM. For the compound `Cc1cc(N(C)c2nc(C(=O)O)c(N3CC[C@@H](Oc4ccccc4)C3)s2)nnc1Nc1nc2ccccc2s1` [Example 79, 2-({6-[(1,3-Benzothiazol-2-yl)amino]-5-methylpyridazin-3-yl}(methyl)amino)-5-[(3R)-3-phenoxypyrrolidin-1-yl]-1,3-thiazole-4-carboxylic acid], in test [2], the inhibition constant (Ki) is 92 nM. Still for that read-out and setting: the result for `Cc1cc(N(C)c2nc(C(=O)O)c(N3CCCCC3)s2)nnc1Nc1nc2ccccc2s1` [Example 80, 2-({6-[(1,3-Benzothiazol-2-yl)amino]-5-methylpyridazin-3-yl}(methyl)amino)-5-(piperidin-1-yl)-1,3-thiazole-4-carboxylic acid] reads 80 nM; that for `Cc1cc(N(C)c2nc(C(=O)O)c(N3CCC(Oc4ccccc4)CC3)s2)nnc1Nc1nc2ccccc2s1` [Example 81, 2-({6-[(1,3-Benzothiazol-2-yl)amino]-5-methylpyridazin-3-yl}(methyl)amino)-5-(4-phenoxypiperidin-1-yl)-1,3-thiazole-4-carboxylic acid], 16 nM; that for `Cc1cc(N(C)c2nc(C(=O)O)c(C3CCN(C)CC3)s2)nnc1Nc1nc2ccccc2s1` [Example 99, 2-({6-[(1,3-Benzothiazol-2-yl)amino]-5-methylpyridazin-3-yl}(methyl)amino)-5-(1-methylpiperidin-4-yl)-1,3-thiazole-4-carboxylic acid], 2400 nM. For the compound `Cc1cc(N(CC(O)CO)c2nc(C(=O)O)cs2)nnc1Nc1nc2ccccc2s1` (stereo not shown) [Example 103, 2-[[6-(1,3-Benzothiazol-2-ylamino)-5-methyl-pyridazin-3-yl]-(2,3-dihydroxypropyl)amino]thiazole-4-carboxylic acid], in test [2], the Ki is 14 nM. Take `Cc1cc(N(CCCC(O)CO)c2nc(C(=O)O)cs2)nnc1Nc1nc2ccccc2s1` (stereo not shown) [Example 104, 2-[[6-(1,3-Benzothiazol-2-ylamino)-5-methyl-pyridazin-3-yl]-(4,5-dihydroxypentyl)amino]thiazole-4-carboxylic acid]: in test [2], the Ki came out at 16 nM. Turning to `Cc1cc(N(CC(CO)N2CCOCC2)c2nc(C(=O)O)cs2)nnc1Nc1nc2ccccc2s1` (stereo not shown) [Example 107, 2-[[6-(1,3-Benzothiazol-2-ylamino)-5-methyl-pyridazin-3-yl]-(3-hydroxy-2-morpholino-propyl)amino]thiazole-4-carboxylic acid], the Ki in test [2] stood at 130 nM. Regarding `CNCC#Cc1ccc(OCCCc2sc(N(CCCC(O)CN(C)CCP(=O)(O)O)c3cc(C)c(Nc4nc5ccccc5s4)nn3)nc2C(=O)O)c(F)c1` (stereo not shown) [Example 196, 2-[[6-(1,3-Benzothiazol-2-ylamino)-5-methyl-pyridazin-3-yl]-[4-hydroxy-5-[methyl(2-phosphonoethyl)amino]pentyl]amino]-5-[3-[2-fluoro-4-[3-(methylamino)prop-1-ynyl]phenoxy]propyl]thiazole-4-carboxylic acid], the values for the IC50 in test [1] and in test [3] were 1620 nM and 879 nM, respectively.

Regarding `CNCC#Cc1ccc(OCCCc2sc(N(CCC[N+](C)(C)C)c3cc(C)c(Nc4nc5ccccc5s4)nn3)nc2C(=O)[O-])c(F)c1` [Example 202, 2-[[6-(1,3-Benzothiazol-2-ylamino)-5-methyl-pyridazin-3-yl]-[3-(trimethylammonio)propyl]amino]-5-[3-[2-fluoro-4-[3-(methylamino)prop-1-ynyl]phenoxy]propyl]thiazole-4-carboxylate], the IC50 in test [1] was determined as 74.8 nM; in test [3], 611 nM.

Take `CNCC#Cc1ccc(OCCCc2sc(N(CCCCN(C)C)c3cc(C)c(Nc4nc5ccccc5s4)nn3)nc2C(=O)O)c(F)c1` [Example 210, 2-[[6-(1,3-Benzothiazol-2-ylamino)-5-methyl-pyridazin-3-yl]-[4-(dimethylamino)butyl]amino]-5-[3-[2-fluoro-4-[3-(methylamino)prop-1-ynyl]phenoxy]propyl]thiazole-4-carboxylic acid]: the IC50 in test [1] was determined as 21.4 nM; in test [3] it was 20.3 nM. As to `CNCC#Cc1ccc(OCCCc2sc(N(CCCCC[N+](C)(C)C)c3cc(C)c(Nc4nc5ccccc5s4)nn3)nc2C(=O)O)c(F)c1` [Example 219, 2-[[6-(1,3-Benzothiazol-2-ylamino)-5-methyl-pyridazin-3-yl]-[5-(trimethylammonio)pentyl]amino]-5-[3-[2-fluoro-4-[3-(methylamino)prop-1-ynyl]phenoxy]propyl]thiazole-4-carboxylate], the results for the IC50 in test [1] and in test [3] were 129 nM and 1270 nM, respectively.
